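Briefly, cells in 96-well plates were exposed to five compound concentrations for 48 h, and endpoints were estimated by linear interpolation. GI50 is the concentration that inhibits growth by half.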 The source made the active and inactive calls. Cut-off read from the data, not from the text of the source: active = GI50 up to about 1.1 µM and inactive = higher.
Assays:
Test in all cases: NCI anticancer screen, dose series, 48 h
SF-295 = system: SF-295
HOP-62 = system: HOP-62
HCT-15 = system: HCT-15
NCI-H23 = system: NCI-H23
SNB-19 = system: SNB-19
HT-29 = system: HT-29
ACHN = system: ACHN
OVCAR-5 = system: OVCAR-5
OVCAR-4 = system: OVCAR-4
A549 = system: A549
HCC 2998 = system: HCC 2998
LOX IMVI = system: LOX IMVI
COLO 205 = system: COLO 205
RXF 393 = system: RXF 393
SF-268 = system: SF-268
HCT-116 = system: HCT-116
A498 = system: A498
SR = system: SR

| SMILES | GI50 (SF-295) | GI50 (HOP-62) | GI50 (HCT-15) [µM] | GI50 (NCI-H23) | GI50 (SNB-19) | GI50 (HT-29) | GI50 (ACHN) | GI50 (OVCAR-5) | GI50 (OVCAR-4) | GI50 (A549) | GI50 (HCC 2998) | GI50 (LOX IMVI) | GI50 (COLO 205) | GI50 (RXF 393) | GI50 (SF-268) | GI50 (HCT-116) | GI50 (A498) | GI50 (SR) |
| --- | --- | --- | --- | --- | --- | --- | --- | --- | --- | --- | --- | --- | --- | --- | --- | --- | --- | --- |
| CCOC(=O)C(c1ccsc1)P(=O)(OCC)OCC (stereo not given) | 17.3 µM (inactive) | 28.1 µM (inactive) | 15 | 16 µM (inactive) | 21.5 µM (inactive) | 15.9 µM (inactive) | 19.6 µM (inactive) | 23.1 µM (inactive) | 28.7 µM (inactive) | 22.4 µM (inactive) | 19.5 µM (inactive) | 6.5 µM (inactive) | 13.3 µM (inactive) | 13.1 µM (inactive) | 23.2 µM (inactive) | 11.5 µM (inactive) | – | – |
| COC(=O)CCC(=O)NC1C2CC3CC(C2)CC1C3 (stereo not given) | > 100 µM (inactive) | > 100 µM (inactive) | > 100 | > 100 µM (inactive) | > 100 µM (inactive) | > 100 µM (inactive) | > 100 µM (inactive) | > 100 µM (inactive) | > 100 µM (inactive) | > 100 µM (inactive) | > 100 µM (inactive) | > 100 µM (inactive) | > 100 µM (inactive) | > 100 µM (inactive) | > 100 µM (inactive) | > 100 µM (inactive) | > 100 µM (inactive) | – |
| Clc1ccc(-c2nnc3c4nnc(-c5ccc(Cl)cc5Cl)n4c4ccccc4n23)c(Cl)c1 | > 100 µM (inactive) | > 100 µM (inactive) | > 100 | > 100 µM (inactive) | 63.5 µM (inactive) | > 100 µM (inactive) | > 100 µM (inactive) | > 100 µM (inactive) | > 100 µM (inactive) | > 100 µM (inactive) | > 100 µM (inactive) | > 100 µM (inactive) | > 100 µM (inactive) | > 100 µM (inactive) | > 100 µM (inactive) | > 100 µM (inactive) | > 100 µM (inactive) | – |
| COC(=O)/C(=N\NC(N)=O)C(C#N)c1ccccc1 (stereo not given) | > 100 µM (inactive) | > 100 µM (inactive) | > 100 | > 100 µM (inactive) | > 100 µM (inactive) | > 100 µM (inactive) | > 100 µM (inactive) | > 100 µM (inactive) | > 100 µM (inactive) | > 100 µM (inactive) | > 100 µM (inactive) | > 100 µM (inactive) | > 100 µM (inactive) | > 100 µM (inactive) | > 100 µM (inactive) | > 100 µM (inactive) | > 100 µM (inactive) | – |
| Cc1c2ccccc2cc2ccc3oc([N+](=O)[O-])cc3c12 | > 100 µM (inactive) | > 100 µM (inactive) | > 100 | – | > 100 µM (inactive) | > 100 µM (inactive) | 4.73 µM (inactive) | > 100 µM (inactive) | > 100 µM (inactive) | > 100 µM (inactive) | > 100 µM (inactive) | > 100 µM (inactive) | > 100 µM (inactive) | > 100 µM (inactive) | > 100 µM (inactive) | > 100 µM (inactive) | 5.6 µM (inactive) | – |
| CC(C)=CCC/C(C)=C/Cc1c(O)c(C)cc2c1[nH]c1cc(O)ccc12 | – | > 25 µM (inactive) | > 25 | – | > 25 µM (inactive) | > 25 µM (inactive) | > 25 µM (inactive) | > 25 µM (inactive) | > 25 µM (inactive) | > 25 µM (inactive) | > 25 µM (inactive) | > 25 µM (inactive) | > 25 µM (inactive) | > 25 µM (inactive) | > 25 µM (inactive) | > 25 µM (inactive) | – | > 25 µM (inactive) |
| COc1ccc(/C=C2\N=C(c3ccccc3)OC2=O)c(OCc2ccccc2)c1 | 17.9 µM (inactive) | 20.5 µM (inactive) | – | – | 28.4 µM (inactive) | – | > 100 µM (inactive) | > 100 µM (inactive) | 22.1 µM (inactive) | 41.5 µM (inactive) | > 100 µM (inactive) | 39.3 µM (inactive) | 84.9 µM (inactive) | – | 54.2 µM (inactive) | 49.3 µM (inactive) | 16.3 µM (inactive) | 21.7 µM (inactive) |
| O=C(Cc1nc2ccccc2o1)C(=O)Nc1cccc(Cl)c1 | > 100 µM (inactive) | > 100 µM (inactive) | > 100 | > 100 µM (inactive) | > 100 µM (inactive) | > 100 µM (inactive) | > 100 µM (inactive) | – | > 100 µM (inactive) | > 100 µM (inactive) | > 100 µM (inactive) | – | > 100 µM (inactive) | > 100 µM (inactive) | > 100 µM (inactive) | > 100 µM (inactive) | > 100 µM (inactive) | > 100 µM (inactive) |
| CC1(C)CC(=O)C(/C(=N/NC(=S)NN)C(=O)Nc2nc3ccc([N+](=O)[O-])cc3s2)C(=O)C1 | > 100 µM (inactive) | > 100 µM (inactive) | > 100 | > 100 µM (inactive) | > 100 µM (inactive) | > 100 µM (inactive) | > 100 µM (inactive) | > 100 µM (inactive) | > 100 µM (inactive) | > 100 µM (inactive) | > 100 µM (inactive) | > 100 µM (inactive) | > 100 µM (inactive) | > 100 µM (inactive) | > 100 µM (inactive) | > 100 µM (inactive) | > 100 µM (inactive) | > 100 µM (inactive) |
| Cc1nc(=O)n2c(C)n[nH]c2c1C(=O)O | > 100 µM (inactive) | > 100 µM (inactive) | > 100 | > 100 µM (inactive) | – | > 100 µM (inactive) | > 100 µM (inactive) | > 100 µM (inactive) | > 100 µM (inactive) | – | – | > 100 µM (inactive) | > 100 µM (inactive) | 31.1 µM (inactive) | > 100 µM (inactive) | > 100 µM (inactive) | – | > 100 µM (inactive) |
| O=C(C/C(=N\NC(=O)C[n+]1ccccc1)C(=O)Nc1nc2ccc([N+](=O)[O-])cc2s1)CC(c1ccccc1)c1c(O)c2ccccc2oc1=O (stereo not given) | > 100 µM (inactive) | > 100 µM (inactive) | – | > 100 µM (inactive) | > 100 µM (inactive) | > 100 µM (inactive) | > 100 µM (inactive) | > 100 µM (inactive) | > 100 µM (inactive) | > 100 µM (inactive) | > 100 µM (inactive) | – | > 100 µM (inactive) | > 100 µM (inactive) | > 100 µM (inactive) | > 100 µM (inactive) | 46.3 µM (inactive) | > 100 µM (inactive) |
| CC1=C(C(=O)Nc2cc(F)c(F)cc2F)C(c2ccc([N+](=O)[O-])cc2)C(C(=O)Nc2cc(F)c(F)cc2F)=C(C)N1 | 56.1 µM (inactive) | 19.6 µM (inactive) | – | 31.8 µM (inactive) | 48.6 µM (inactive) | 34.1 µM (inactive) | 27.1 µM (inactive) | 35 µM (inactive) | 18.5 µM (inactive) | 37.8 µM (inactive) | 21.4 µM (inactive) | 80.2 µM (inactive) | 71.4 µM (inactive) | 10.6 µM (inactive) | 22.2 µM (inactive) | 25.8 µM (inactive) | 18.2 µM (inactive) | – |
| Cc1ccc(C(=O)CC2(O)C(=O)Nc3c(C)cc(Cl)cc32)cc1 (stereo not given) | > 100 µM (inactive) | > 100 µM (inactive) | > 100 | > 100 µM (inactive) | > 100 µM (inactive) | > 100 µM (inactive) | > 100 µM (inactive) | > 100 µM (inactive) | 35.7 µM (inactive) | > 100 µM (inactive) | > 100 µM (inactive) | > 100 µM (inactive) | > 100 µM (inactive) | > 100 µM (inactive) | > 100 µM (inactive) | – | – | – |
| O=C1CCC(=O)C12CCc1ccccc12 | > 100 µM (inactive) | > 100 µM (inactive) | > 100 | > 100 µM (inactive) | – | > 100 µM (inactive) | > 100 µM (inactive) | – | > 100 µM (inactive) | > 100 µM (inactive) | > 100 µM (inactive) | > 100 µM (inactive) | > 100 µM (inactive) | > 100 µM (inactive) | > 100 µM (inactive) | – | – | – |
| CCOC(=O)C(Cc1c(C=O)[nH]c2ccccc12)(NC(=O)c1ccccc1)C(=O)OCC | 14.4 µM (inactive) | – | 6.7 | 13.7 µM (inactive) | 4.93 µM (inactive) | 16.4 µM (inactive) | 14.4 µM (inactive) | 20.5 µM (inactive) | – | 19.1 µM (inactive) | 12.2 µM (inactive) | – | 18.8 µM (inactive) | 11 µM (inactive) | 15 µM (inactive) | – | – | > 100 µM (inactive) |
| c1ccc(CSc2nc3ccccc3nc2-c2cccs2)cc1 | > 100 µM (inactive) | > 100 µM (inactive) | > 100 | > 100 µM (inactive) | > 100 µM (inactive) | > 100 µM (inactive) | > 100 µM (inactive) | > 100 µM (inactive) | > 100 µM (inactive) | > 100 µM (inactive) | > 100 µM (inactive) | – | > 100 µM (inactive) | – | > 100 µM (inactive) | > 100 µM (inactive) | – | – |
| COC(=O)C1=Cc2cc3c(cc2[C@H](c2ccc4c(c2)OCO4)C1C(=O)OC)OCO3 (stereo not given in full) | 38.5 µM (inactive) | > 100 µM (inactive) | > 100 | > 100 µM (inactive) | > 100 µM (inactive) | 36.2 µM (inactive) | 43.9 µM (inactive) | > 100 µM (inactive) | 61.9 µM (inactive) | > 100 µM (inactive) | > 100 µM (inactive) | > 100 µM (inactive) | 37.8 µM (inactive) | 80.4 µM (inactive) | > 100 µM (inactive) | 41.7 µM (inactive) | 0.0745 µM (active) | 59.4 µM (inactive) |
